In the Kinase Knowledgebase extract (Sharma et al. 2016):

These molecules were tested against MAPK14 (human) (UniProt Q16539) (assay: Inhibition of MAPK14 Kinase Activity).
Chain of MAPK14 (human) (Q16539 whole entry, looked up): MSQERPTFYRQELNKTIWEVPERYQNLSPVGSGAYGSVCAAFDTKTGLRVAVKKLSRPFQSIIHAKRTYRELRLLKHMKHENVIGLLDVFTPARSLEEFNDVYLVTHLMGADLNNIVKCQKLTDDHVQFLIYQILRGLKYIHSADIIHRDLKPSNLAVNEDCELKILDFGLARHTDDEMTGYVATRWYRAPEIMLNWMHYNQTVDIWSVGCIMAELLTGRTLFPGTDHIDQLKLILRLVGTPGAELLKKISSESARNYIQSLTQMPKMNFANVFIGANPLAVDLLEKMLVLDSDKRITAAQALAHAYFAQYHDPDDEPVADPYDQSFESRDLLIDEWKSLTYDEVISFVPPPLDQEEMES
For CN(C)C(=O)c1cc2c(ccc(=O)n2-c2ccccc2)n1Cc1cccc(Cl)c1, the IC50 was no more than 2000 nM.
For NC(=O)c1cc2c(ccc(=O)n2-c2ccc3[nH]ccc3c2)n1Cc1cccc(Cl)c1, the IC50 was no more than 2000 nM.
For CON(C)C(=O)c1cc2c(ccc(=O)n2-c2ccccc2)n1Cc1ccc(F)c(Cl)c1, the IC50 was no more than 2000 nM.
O=c1ccc2c(ccn2Cc2ccc(F)c(F)c2)n1-c1ccccc1 showed an IC50 of no more than 2000 nM.
O=C(c1cc2c(ccc(=O)n2-c2ccccc2)n1Cc1cccc(Cl)c1)N1CCCC1 gave an IC50 of no more than 2000 nM.
CON(C)C(=O)c1cc2c(ccc(=O)n2-c2ccccc2)n1Cc1cccc(Cl)c1 was tested, and the IC50 was no more than 2000 nM.
In the case of Cc1cccc(Cn2c(C(N)=O)cc3c2ccc(=O)n3-c2ccccc2)c1, the IC50 is reported as no more than 2000 nM.
Molecule Cc1cccc(Cn2ccc3c2ccc(=O)n3-c2ccccc2)c1 has an IC50 of no more than 2000 nM.
In the case of COc1cccc(Cn2ccc3c2ccc(=O)n3-c2ccccc2)c1, the IC50 is reported as no more than 2000 nM.
For CCOC(=O)c1cc2c(ccc(=O)n2-c2ccc(C)cc2)n1Cc1cccc(Cl)c1, the IC50 was no more than 2000 nM.
Cc1cccc(Cn2c(C(=O)N3CCC[C@H]3CO)cc3c2ccc(=O)n3-c2ccccc2)c1 gave an IC50 of no more than 2000 nM.
O=C(c1cn(Cc2ccccc2)c2ccc(=O)n(-c3ccccc3)c12)C(F)(F)F gave an IC50 of no more than 2000 nM.
For CCOC(=O)c1cc2c(ccc(=O)n2-c2ccccc2)n1Cc1ccc(F)c(Cl)c1, the IC50 was no more than 2000 nM.
CCOC(=O)c1cc2c(ccc(=O)n2-c2ccccc2)n1Cc1ccccc1 showed an IC50 of no more than 2000 nM.
For CCOC(=O)c1cc2c(ccc(=O)n2-c2ccccc2)n1Cc1cccc(Cl)c1, the IC50 was no more than 2000 nM.
Molecule NC(=O)c1cc2c(ccc(=O)n2-c2ccccc2)n1Cc1cccc(Cl)c1 has an IC50 of no more than 2000 nM.
Work on CON(C)C(=O)c1cc2c(ccc(=O)n2-c2ccccc2)n1Cc1cccc(C)c1 yielded an IC50 of no more than 2000 nM.
O=c1ccc2c(ccn2Cc2cccc(Cl)c2)n1-c1ccsc1 showed an IC50 of no more than 2000 nM.
Work on N#Cc1cc2c(ccc(=O)n2-c2ccccc2)n1Cc1cccc(Cl)c1 yielded an IC50 of no more than 2000 nM.
Work on CNC(=O)c1cc2c(ccc(=O)n2-c2ccccc2)n1Cc1cccc(Cl)c1 yielded an IC50 of no more than 2000 nM.
Molecule O=c1ccc2c(ccn2Cc2c(Cl)cccc2Cl)n1-c1ccccc1 has an IC50 of no more than 2000 nM.
CCOC(=O)c1cc2c(ccc(=O)n2-c2ccccc2)n1Cc1cccc(C)c1 was tested, and the IC50 was no more than 2000 nM.
Molecule Cc1cc(Cn2c(C(N)=O)cc3c2ccc(=O)n3-c2ccccc2)ccc1F has an IC50 of no more than 2000 nM.
With O=c1ccc2c(cc(S(=O)(=O)N3CCCC3)n2Cc2cccc(Cl)c2)n1-c1ccccc1 the IC50 was no more than 2000 nM.
Molecule O=c1ccc2c(ccn2Cc2cccc(Cl)c2)n1-c1ccccc1 has an IC50 of no more than 2000 nM.
O=c1ccc2c(ccn2Cc2ccc(F)c(Cl)c2)n1-c1ccccc1 showed an IC50 of no more than 2000 nM.
Molecule CC(c1ccccc1)n1ccc2c1ccc(=O)n2-c1ccccc1 (stereo not drawn) has an IC50 of no more than 2000 nM.
For O=c1ccc2c(ccn2Cc2ccc(F)cc2F)n1-c1ccccc1, the IC50 was no more than 2000 nM.
Cc1ccc(Cn2ccc3c2ccc(=O)n3-c2ccccc2)cc1 showed an IC50 of no more than 2000 nM.
Molecule CCOC(=O)c1cc2c(ccc(=O)n2-c2ccccc2[N+](=O)[O-])n1Cc1cccc(Cl)c1 has an IC50 of no more than 2000 nM.
With O=C(c1ccccc1)n1ccc2c1ccc(=O)n2-c1ccccc1 the IC50 was no more than 2000 nM.
O=c1ccc2c(ccn2Cc2cccnc2)n1-c1ccccc1 gave an IC50 of no more than 2000 nM.
For O=c1ccc2c(ccn2Cc2ccccc2)n1-c1ccccc1, the IC50 was no more than 2000 nM.
O=c1ccc2c(ccn2Cc2cc(Cl)ccc2Cl)n1-c1ccccc1 showed an IC50 of no more than 2000 nM.
NNC(=O)c1cc2c(ccc(=O)n2-c2ccccc2)n1Cc1cccc(Cl)c1 gave an IC50 of no more than 2000 nM.
Work on O=c1ccc2c(ccn2Cc2ccc(Cl)c(Cl)c2)n1-c1ccccc1 yielded an IC50 of no more than 2000 nM.
Work on Cc1ccccc1Cn1ccc2c1ccc(=O)n2-c1ccccc1 yielded an IC50 of no more than 2000 nM.
With CCOC(=O)c1cc2c(ccc(=O)n2-c2ccc3[nH]ccc3c2)n1Cc1cccc(Cl)c1 the IC50 was no more than 2000 nM.
For O=c1ccc2c(ccn2Cc2ccncc2)n1-c1ccccc1, the IC50 was no more than 2000 nM.
N#Cc1cccc(Cn2ccc3c2ccc(=O)n3-c2ccccc2)c1 was tested, and the IC50 was no more than 2000 nM.
CCOC(=O)c1cc2c(ccc(=O)n2-c2ccsc2)n1Cc1cccc(Cl)c1 showed an IC50 of no more than 2000 nM.
Molecule N#Cc1ccccc1Cn1c(C(N)=O)cc2c1ccc(=O)n2-c1ccccc1 has an IC50 of no more than 2000 nM.
In the case of N#Cc1ccc(Cn2ccc3c2ccc(=O)n3-c2ccccc2)cc1, the IC50 is reported as no more than 2000 nM.
In the case of O=c1ccc2c(ccn2Cc2nc3ccccc3s2)n1-c1ccccc1, the IC50 is reported as no more than 2000 nM.
In the case of O=c1ccc2c(ccn2CCc2ccccc2)n1-c1ccccc1, the IC50 is reported as no more than 2000 nM.
O=c1ccc2c(ccn2Cc2ccc(Cl)s2)n1-c1ccccc1 showed an IC50 of no more than 2000 nM.
In the case of CCOC(=O)c1cc2c(ccc(=O)n2-c2ccccc2)n1Cc1ccc(F)c(C)c1, the IC50 is reported as no more than 2000 nM.
O=c1ccc2c(ccn2Cc2ccc(F)cc2)n1-c1ccccc1 was tested, and the IC50 was no more than 2000 nM.
For NC(=O)c1cc2c(ccc(=O)n2-c2ccccc2)n1Cc1ccc(F)c(Cl)c1, the IC50 was no more than 2000 nM.
With Cc1ccc(-n2c(=O)ccc3c2cc(C(N)=O)n3Cc2cccc(Cl)c2)cc1 the IC50 was no more than 2000 nM.
For Cc1ccc(-n2c(=O)ccc3c2cc(C(=O)NN)n3Cc2cccc(Cl)c2)cc1, the IC50 was no more than 2000 nM.
COc1ccc(-n2c(=O)ccc3c2ccn3Cc2ccccc2)cc1 gave an IC50 of no more than 2000 nM.
Molecule O=c1ccc2c(ccn2Cc2ccc(Cl)cc2)n1-c1ccccc1 has an IC50 of no more than 2000 nM.
